Experimental data published in ChEMBL document CHEMBL2150990, “Substrate-like water soluble lipase inhibitors from Filipendula kamtschatica” (Bioorg Med Chem Lett, 2012).

What was measured:
[1] = biological target: T1, Pancreatic triacylglycerol lipase (Sus scrofa, UniProt P00591); experiment: Inhibition of porcine pancreatic lipase using micellar solution of triolein as substrate preincubated for 5 mins before substrate addition measured after 30 mins
T1 sequence (P00591 whole entry): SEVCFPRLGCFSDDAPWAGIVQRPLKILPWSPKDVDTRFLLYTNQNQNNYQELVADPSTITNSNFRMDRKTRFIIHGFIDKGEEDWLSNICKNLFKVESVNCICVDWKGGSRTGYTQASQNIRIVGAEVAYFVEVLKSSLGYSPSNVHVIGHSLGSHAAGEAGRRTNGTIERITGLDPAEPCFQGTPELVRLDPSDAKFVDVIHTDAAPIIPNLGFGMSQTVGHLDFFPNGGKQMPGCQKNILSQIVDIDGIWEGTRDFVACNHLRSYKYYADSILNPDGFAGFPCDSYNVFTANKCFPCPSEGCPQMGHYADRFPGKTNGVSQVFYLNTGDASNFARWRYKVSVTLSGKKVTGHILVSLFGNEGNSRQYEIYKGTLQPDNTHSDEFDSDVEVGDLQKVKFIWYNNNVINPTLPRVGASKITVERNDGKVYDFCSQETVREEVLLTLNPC

[2] = biological target: T2, Pancreatic triacylglycerol lipase (Sus scrofa) (UniProt P00591); details: 0.4 uM
T2 sequence (whole entry): T1 sequence (P00591 whole entry)
Description: Inhibition of porcine pancreatic lipase using micellar solution of triolein as substrate at 0.4 uM preincubated for 5 mins before substrate addition measured after 30 mins

[3] = biological target: T2, Pancreatic triacylglycerol lipase (Sus scrofa); experiment: Inhibition of porcine pancreatic lipase using micellar solution of triolein as substrate at 1 mM preincubated for 5 mins before substrate addition measured after 30 mins

SMILES | IC50 [1] [µM] | inhibition [2] [%] | inhibition [3] [%]
O=c1c(O[C@@H]2O[C@H](CO)[C@H](O)[C@H](O)[C@H]2O[C@@H]2OC[C@@H](O)[C@H](O)[C@H]2O)c(-c2ccc(O)c(O)c2)oc2cc(O)cc(O)c12 | 300 | – | –
O=C(/C=C/c1ccc(O)c(O)c1)O[C@@H](C(=O)O)[C@@H](O)COC(=O)c1cc(O)c(O)c(O)c1 | 246 | – | –
O=C(/C=C/c1ccc(O)c(O)c1)O[C@@H](COC(=O)c1cc(O)c(O)c(O)c1)[C@@H](O)C(=O)O | 26 | – | –
CCCCCCCCCCC[C@@H](C[C@@H]1OC(=O)[C@H]1CCCCCC)OC(=O)[C@H](CC(C)C)NC=O | – | 55 | –
O=C(O)/C=C/c1ccc(O)c(O)c1 [CAFFEIC ACID] | > 1000 | – | 13
O=C(O)c1cc(O)c(O)c(O)c1 [GALLIC ACID] | > 1000 | – | 4
O=C(O)[C@H](O)[C@@H](O)CO [L-THREONIC ACID] | > 1000 | – | 30
